According to patent publication US8198322B2, “Apoptotic and anti-tumor activities of metallo-salens” (Board of Regents, The University of Texas System, priority 2008, dated 2012):
Several values for one entry are separate records, joined by “and”; a condition that tells them apart may be missing. Equal entries are not always repeated. Where two headings read alike, the source gives them in different places.

Tests used:
MCF-7 cells [1] = assay: Cell viability assay (MTT, DIC microscopy) at 20 μM; format: cell-based, human; set-up: key to Summary of cell viability activities (active/inactive): Y and N indicates active and inactive compounds respectively; Y and N indicates active and inactive compounds respectively; conditions: for effect on cell viability (in words): up to 96 hrs; for Summary of cell viability activities (active/inactive): MCF-7 cells, 20 μM, 24-96 hrs, MTT
Description: (A-F): MCF-7 cells were treated with 20 μM metallo-salens and incubated for varying time periods (24-96 hrs). Viable cells were quantified using MTT assay. The percent viable cells (relative to control, treated with equivalent amount of DMSO) were plotted as a function of time for each compound. This experiment was repeated twice with 8 replicate treatments each time. Bars indicates standard errors of mean (SEM). Curves 1-42 in FIGS. 2A-2F, represent the viability curves for compounds 1-42 respectively. (A′-F′) DIC images of the corresponding MCF-7 cells that were treated with DMSO (control panel), or with 20 μM Mn(III)- and Fe(III)-salen complexes for 72 hrs showing the visual effects on cellular morphology and growth/death.
Cell viability assay: Approximately 10,000 MCF-7 cells were seeded into each well of a 96 well micro titer plate and incubated 24 hrs in presence of 150 μL DMEM. An additional 50 μL DMEM containing required amount of each metallo-salen to obtain 20 μM final concentrations (in 200 μL final volume) in 8 replicate wells were added. Control wells were treated with equivalent amount of dimethylsulfoxide (DMSO). The viability of the cells was assayed at 24, 48, 72 and 96 hrs post treatment by using both microscopic observation and MTT assay. For microscopic observation cells were stained with trypan blue for at least 10 minute and observed under Differential Interference Contrast (DIC) setting of a fluorescence microscope (Nikon Eclipse TE2000-U, Japan). The MTT assay was performed as described previously^42. In brief, 20 μL MTT (5 mg/ml in PBS) was added into each wells and incubated for 2 hrs under normal growth condition to allow the viable cell to convert MTT to formazan. Then the media was discarded and formazan crystals were dissolved by adding 100 μL of DMSO and incubating 2 hrs with continuous shaking. The absorbance of the lysates were directly measured at 560 nm using a micro plate reader (Fluostar-omega, BMG Labtech). The absorbance values (which are proportional to the viable cell) are plotted as a function of time. The studies were repeated twice with 8 replicates each time.
The inventors studied the effect of Mn(III)-salen and Fe(III)-salen derivatives on the cell viability of cultured breast cancer cells MCF-7 in order to investigate the biochemical effects of the derivatives. The cells were incubated alone or with 20 μM of each of the metallo-salen derivatives separately (compounds 1-45) for varying time periods (0-96 hrs). The viable cells were quantified using MTT assay and the percent of cell survived (relative to the control untreated cells) were plotted against time (FIGS. 2A-2F).

MCF-7 cells [2] = assay: Cytotoxicity assay (IC50 measurement, MTT); format: cell-based, human; conditions: MCF-7, 96 hrs
Description: Cytotoxicity assay (IC50 measurement): The cytotoxicity of Fe(III)-salen and its derivatives was determined by using MTT assay as described previously^42. In brief, approximately 10,000 MCF-7 cells were seeded into each well of a 96 well micro titer plate and incubated 24 hrs in presence of 150 μL DMEM. An additional 50 μL DMEM containing required amount of each metallo-salen to obtain 0.05 to 60 μM final concentration (in 200 μL final volume) in 8 replicate wells were added. Control wells were treated with equivalent amount of DMSO. After 96 hrs of incubation, 20 μL of MTT (5 mg/mL) was added into each well and cell viability was assayed by measuring the formazan absorption at 560 nm as described above. The absorbance (at 560 nm) values were plotted against concentration of metallo-salens to determine the IC50. The studies were repeated twice with 8 replicates each time.
The concentration of the metal-complexes at which the conversion of MTT to formazan by viable cells is reduced by 50% compared to control cells is defined as the IC50. The percent of cell survival relative to the control cells were plotted as a function of concentration of the metallo-salen derivatives.

[3] = tested on: MCF-7 and CCL228 cancer cells over MCF-10 normal breast epithelial cells; assay: IC50 comparison of cancer versus normal cell lines (MTT, FIG. 4); format: cell-based, human; conditions: ratio of IC50 values
Description: IC50 values for each biochemically compounds were determined using MTT assay in three different cell lines that include MCF-7 (breast cancer), CCL228 (colon cancer) and MCF-10 (normal breast epithelial cells). IC50 values were for comparison for each compound (compounds 1-45) as marked.
To study the anti-tumor drug potential of Mn(III)- and Fe(III)-metallo salen derivatives, the inventors analyzed IC50 values for the each of the active compounds towards different cancer as well as normal cells. The IC50 values for different active compounds (compounds 1-42) for three different cell lines, MCF-7 (breast cancer), CCL228 (colon cancer) and MCF-10 (non malignant breast cells), are plotted in the bar graph in FIG. 4.

Animal toxicity = format: in vivo; conditions: C57B mice, intraperitoneal, 5, 10 and 20 mg/kg, twice a week for 4 weeks
Description: The inventors intraperitoneally administered the Mn(III)-salen complexes (in PBS) at three different dozes (5, 10 and 20 mg/kg of mice, 6 weeks old normal C57B mice). The mice were treated twice a week for 4 weeks. After treatment, sign of toxicity were monitored (such as weight loss, mobility), animal behavior and health on a daily basis.

[4] = tested on: colon cancer xenograft (CCL228 cells); assay: Colon cancer xenograft experiment; format: in vivo; conditions: Athymic nude nu/nu mice, intraperitoneal, 10 mg/kg, twice a week
Description: Athymic nude nu/nu mice carrying the colon cancer xenograft were administered with 10 mg/kg of 3,3′-dimethoxy Mn(III)-salen (compound 6), 3,3′-dihydroxy Mn(III)-salphen (compound 9) and 3,3′-dihydroxy Mn(III)-salnaphen (compound 16) at 4 days interval, for over a period of 21 days. Tumor diameters were measured using a slide caliper prior to each administration and plotted (left panel). Bar indicated standard deviation (3 replicate experiments).
All the animal experiments were carried out using the IACUC approved protocol. For examining the efficacies of metallo-salen complexes, the inventors administered selected metallo-salen complexes in PBS intraperitoneally on Athymic nude nu/nu mice (Harlan) carrying the colon cancer xenografts. In brief, 2×10^6 human colon cancer cells (CCL228 cell in 100 μl of PBS) were injected subcutaneously (near the right back limb). Animals were examined daily for signs of tumor growth and behavior. Once the tumor size reached ˜25 mm^2 (2 to 3 weeks after injection of cells) the inventors administered the metallo-salen complexes intraperitoneally (in PBS solution, twice in a week, in three parallel replicates). Control mice were injected with equal volume of the diluents (PBS) alone. Prior to every new treatment with metallo-salen complexes, bi-dimensional measurements were carried out using calipers and cross-sectional area (tumor size) and data were plotted (FIG. 8A).
Xenograft experiment: To test the efficacy in controlling the tumor growth, the inventors administered compound compounds, 6, 9 and 16, intraperitoneally to six week old Athymic nude nu/nu mice carrying the colon cancer xenograft. In brief, 2×10^6 human colon cancer cells (CCL228 cell in 100 μl of PBS) were injected subcutaneously (near the right back limb). Animals were examined daily for signs of tumor growth and behavior. Once the tumor size reached ˜25 mm^2 (2 to 3 weeks after injection of cells) the inventors administered compounds 6, 9, and 16 intraperitoneally (separately in PBS solution, twice a week, 10 mg/kg dose). Every study was performed in three parallel replicates. […]

[5] = read-out: IC50 values for different complexes in MCF-7 cells
[6] = read-out: IC50 toward MCF-7 cells

COc1ccc(C=NCCN=Cc2ccc(OC)cc2[O-])c([O-])c1.[Cl-].[Fe+3] [compound 27, 4,4′-Dimethoxysalen Fe(III) chloride]
time to induce similar extent (more than 80%) of cell death (MCF-7 cells [1]; MCF-7, 20 μM): about 72 hrs
effect on cell viability (in words) (MCF-7 cells [1]; MCF-7, 20 μM): highly effective in killing MCF-7 cells
Summary of cell viability activities (active/inactive) (MCF-7 cells [1]): Y (27)
IC50 (MCF-7 cells [2]; [5]): 12.4 µM
selectivity in killing cancer cells (MCF-7 and CCL228) over normal cells (MCF-10) [3]: about 4 fold

CC(=O)[O-].[Mn+3].[O-]c1c(O)cccc1C=Nc1cc2ccccc2cc1N=Cc1cccc(O)c1[O-] [compound 16, 3,3′-Dihydroxysalnaphen Mn(III) acetate]
Summary of cell viability activities (active/inactive) (MCF-7 cells [1]): Y (16)
IC50 (MCF-7 cells [2]; [5]): 40.3 µM
animal toxicity (Animal toxicity): did not have any significant animal toxicity
survival and body weight (Animal toxicity): survived without significant loss of body weight
tumor growth in colon cancer xenograft [4]: tumor size were grown exponentially

CC(=O)[O-].[Mn+3].[O-]c1c(O)cccc1C=Nc1ccccc1N=Cc1cccc(O)c1[O-] [compound 9, 3,3′-Dihydroxysalphen Mn(III) acetate]
Summary of cell viability activities (active/inactive) (MCF-7 cells [1]): Y (9)
IC50 (MCF-7 cells [2]; [5]): 17.3 µM
animal toxicity (Animal toxicity): did not have any significant animal toxicity
survival and body weight (Animal toxicity): survived without significant loss of body weight
tumor growth in colon cancer xenograft [4]: complete arrest of tumor growth

[Cl-].[Fe+3].[O-]c1ccccc1C=Nc1cc2ccccc2cc1N=Cc1ccccc1[O-] [compound 36, Fe(III)-salnaphen chloride]
Summary of cell viability activities (active/inactive) (MCF-7 cells [1]): Y (36)
IC50 (MCF-7 cells [2]; [6]): 0.54 µM

CC(=O)[O-].COc1cccc(C=NCCN=Cc2cccc(OC)c2[O-])c1[O-].[Mn+3] [compound 5, 3,3′-Dimethoxysalen Mn(III) acetate]
Summary of cell viability activities (active/inactive) (MCF-7 cells [1]): Y (5)
IC50 (MCF-7 cells [2]; [5]): 17.7 µM

CC(=O)[O-].COc1ccc(C=NCCN=Cc2ccc(OC)cc2[O-])c([O-])c1.[Mn+3] [compound 6, 4,4′-Dimethoxysalen Mn(III) acetate]
effect on cell viability (in words) (MCF-7 cells [1]; MCF-7, 20 μM): induced efficient cell death
Summary of cell viability activities (active/inactive) (MCF-7 cells [1]): Y (6)
IC50 (MCF-7 cells [2]; [5]): 12.3 µM
animal toxicity (Animal toxicity): did not have any significant animal toxicity
survival and body weight (Animal toxicity): survived without significant loss of body weight
tumor growth in colon cancer xenograft [4]: complete arrest of tumor growth

[Cl-].[Fe+3].[O-]c1ccccc1C=NCCN=Cc1ccccc1[O-] [compound 22, Fe(III)-salen chloride]
effect on cell viability (in words) (MCF-7 cells [1]; MCF-7, 20 μM): highly effective in killing MCF-7 cells
Summary of cell viability activities (active/inactive) (MCF-7 cells [1]): Y (22)
IC50 (MCF-7 cells [2]; [5]): 22.4 µM

COc1ccc([O-])c(C=NCCN=Cc2cc(OC)ccc2[O-])c1.[Cl-].[Fe+3] [compound 28, 5,5′-Dimethoxysalen Fe(III) chloride]
cells killed in less than 24 hrs (MCF-7 cells [1]; MCF-7, 20 μM, less than 24 hrs): more than 80%
effect on cell viability (in words) (MCF-7 cells [1]; MCF-7, 20 μM): highly effective in killing MCF-7 cells
Summary of cell viability activities (active/inactive) (MCF-7 cells [1]): Y (28)
IC50 (MCF-7 cells [2]; [5]): 4.56 µM

CC(=O)[O-].[Mn+3].[O-]c1cc(O)ccc1C=Nc1cc2ccccc2cc1N=Cc1ccc(O)cc1[O-] [compound 17, 4,4′-Dihydroxysalnaphen Mn(III) acetate]
effect on cell viability (in words) (MCF-7 cells [1]; MCF-7, 20 μM): effective in inducing cell death
Summary of cell viability activities (active/inactive) (MCF-7 cells [1]): Y (17)
IC50 (MCF-7 cells [2]; [5]): 21.4 µM

CC(=O)[O-].COc1cccc(C=Nc2ccccc2N=Cc2cccc(OC)c2[O-])c1[O-].[Mn+3] [compound 12, 3,3′-Dimethoxysalphen Mn(III) acetate]
Summary of cell viability activities (active/inactive) (MCF-7 cells [1]): Y (12)
IC50 (MCF-7 cells [2]; [5]): 22.2 µM

COc1ccc([O-])c(C=Nc2ccccc2N=Cc2cc(OC)ccc2[O-])c1.[Cl-].[Fe+3] [compound 35, 5,5′-Dimethoxysalphen Fe(III) chloride]
Summary of cell viability activities (active/inactive) (MCF-7 cells [1]): Y (35)
IC50 (MCF-7 cells [2]; [5]): 3.11 µM

CC(=O)[O-].COc1ccc(C=Nc2ccccc2N=Cc2ccc(OC)cc2[O-])c([O-])c1.[Mn+3] [compound 13, 4,4′-Dimethoxysalphen Mn(III) acetate]
effect on cell viability (in words) (MCF-7 cells [1]; MCF-7, 20 μM): most effective on inducing cell death
Summary of cell viability activities (active/inactive) (MCF-7 cells [1]): Y (13)
IC50 (MCF-7 cells [2]; [5]): 15.5 µM and 15.6 µM

[Cl-].[Fe+3].[O-]c1c(O)cccc1C=Nc1cc2ccccc2cc1N=Cc1cccc(O)c1[O-] [compound 37, 3,3′-Dihydroxysalnaphen Fe(III) chloride]
Summary of cell viability activities (active/inactive) (MCF-7 cells [1]): Y (37)
IC50 (MCF-7 cells [2]; [6]): 0.22 µM

COc1ccc(C=Nc2ccccc2N=Cc2ccc(OC)cc2[O-])c([O-])c1.[Cl-].[Fe+3] [compound 34, 4,4′-Dimethoxysalphen Fe(III) chloride]
Summary of cell viability activities (active/inactive) (MCF-7 cells [1]): Y (34)
IC50 (MCF-7 cells [2]; [6]): 0.68 µM

CC(=O)[O-].[Mn+3].[O-]c1ccccc1C=NCCN=Cc1ccccc1[O-] [compound 1, Mn(III)-salen acetate]
Summary of cell viability activities (active/inactive) (MCF-7 cells [1]): Y^b (1)
IC50 (MCF-7 cells [2]; [5]): 20.4 µM and 20.5 µM

5,5′-Dimethoxysalnaphen Fe(III) chloride [compound 42]
Summary of cell viability activities (active/inactive) (MCF-7 cells [1]): Y (42)
IC50 (MCF-7 cells [2]; [5]): 1.24 µM
